Assay results: patent US11661426B2, “Imidazole-containing inhibitors of ALK2 kinase” (BioCryst Pharmaceuticals, Inc., priority 2017, dated 2023)

Biological target: ALK2 (Homo sapiens (Human), UniProt Q04771)
Experiment: ALK2 inhibition, LanthaScreen Eu Kinase Binding Assay (ThermoFisher Scientific / Life Technologies)
Settings: read-out: Measured Ki (IC50) Value for Compounds: IC50
Method: Biochemical assays to measure the inhibitory effects of the compounds were performed by ThermoFisher Scientific (Life Technologies). ALK2 inhibition was tested using LanthaScreen™ Eu Kinase Binding Assay screening protocol.

Chain of ALK2 (Q04771 21-509): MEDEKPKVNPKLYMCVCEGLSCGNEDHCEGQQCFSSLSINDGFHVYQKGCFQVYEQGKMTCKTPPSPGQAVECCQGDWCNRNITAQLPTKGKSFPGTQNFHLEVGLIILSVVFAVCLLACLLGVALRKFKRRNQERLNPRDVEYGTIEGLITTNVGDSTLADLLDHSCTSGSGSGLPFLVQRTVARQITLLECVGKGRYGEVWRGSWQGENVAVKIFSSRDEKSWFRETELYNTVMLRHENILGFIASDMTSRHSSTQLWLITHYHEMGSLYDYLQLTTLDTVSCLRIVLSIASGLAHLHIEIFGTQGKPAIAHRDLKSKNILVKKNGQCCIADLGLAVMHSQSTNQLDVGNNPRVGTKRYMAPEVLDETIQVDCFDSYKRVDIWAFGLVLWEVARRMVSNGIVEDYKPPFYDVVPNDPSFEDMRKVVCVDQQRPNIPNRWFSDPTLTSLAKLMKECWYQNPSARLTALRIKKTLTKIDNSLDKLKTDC

Compound | IC50 [nM]
OC[C@@H]1CCCN1c1nc(Nc2cn(-c3ccc(Cl)cc3)cn2)c2cccn2n1 [Compound 49c, (S)-(1-(4-((1-(4-chlorophenyl)-1H-imidazol-4-yl)amino)pyrrolo[2,1-f][1,2,4]triazin-2-yl)pyrrolidin-2-yl)methanol] | < 100
COc1cc(-n2cnc(Nc3nc(N4CCC[C@H]4C(N)=O)nn4cccc34)c2)cc(C(=O)NC2CCCC2)c1O [Compound 351d, (S)-1-(4-((1-(3-(cyclopentylcarbamoyl)-4-hydroxy-5-methoxyphenyl)-1H-imidazol-4-yl)amino)pyrrolo[2,1-f][1,2,4]triazin-2-yl)pyrrolidine-2-carboxamide] | > 1000
COc1cc(-n2cnc(Nc3nc4c(c(N5CCC[C@H]5C(N)=O)n3)CN(Cc3ccccc3)CC4)c2)cc(OC)c1OC [Compound 213b, (S)-1-(6-benzyl-2-((1-(3,4,5-trimethoxyphenyl)-1H-imidazol-4-yl)amino)-5,6,7,8-tetrahydropyrido[4,3-d]pyrimidin-4-yl)pyrrolidine-2-carboxamide] | < 100
OC[C@@H]1CCCN1c1nc(Nc2cn(C3CCCC3)cn2)c2cccn2n1 [Compound 50c, (S)-(1-(4-((1-cyclopentyl-1H-imidazol-4-yl)amino)pyrrolo[2,1-f][1,2,4]triazin-2-yl)pyrrolidin-2-yl)methanol] | < 100
C[C@H](Nc1nc(Nc2cn(C)cn2)c2ccccc2n1)c1ccccc1 [Compound 21c, (S)—N4-(1-methyl-1H-imidazol-4-yl)-N2-(1-phenylethyl)quinazoline-2,4-diamine] | < 100
COc1cc(-n2cnc(Nc3nc(N4CCC[C@H]4C(N)=O)nn4c(CN5CCNCC5)ccc34)c2)cc(OC)c1OC [Compound 245c, (S)-1-(7-(piperazin-1-ylmethyl)-4-((1-(3,4,5-trimethoxyphenyl)-1H-imidazol-4-yl)amino)pyrrolo[2,1-f][1,2,4]triazin-2-yl)pyrrolidine-2-carboxamide] | < 100
COc1cc(-n2cnc(Nc3nc(N4CCC[C@H]4C(N)=O)nc4cc[nH]c34)c2)cc(OC)c1OC [Compound 162b, (S)-1-(4-((1-(3,4,5-trimethoxyphenyl)-1H-imidazol-4-yl)amino)-5H-pyrrolo[3,2-d]pyrimidin-2-yl)pyrrolidine-2-carboxamide] | < 100
COc1cc(-n2cnc(Nc3nc(N4CCC[C@H]4CO)c4c(ncn4C)n3)c2)cc(OC)c1OC [Compound 389c, (S)-(1-(7-methyl-2-((1-(3,4,5-trimethoxyphenyl)-1H-imidazol-4-yl)amino)-7H-purin-6-yl)pyrrolidin-2-yl)methanol] | < 100
COc1cc(-n2cnc(Nc3ccc4ccccc4c3)c2)cc(OC)c1OC [Compound 178b, N-(naphthalen-2-yl)-1-(3,4,5-trimethoxyphenyl)-1H-imidazol-4-amine] | 100 to 1000
OC[C@@H]1CCCN1c1nc(Nc2cn(-c3ccc4c(c3)OCO4)cn2)c2cccn2n1 [Compound 425e, (S)-(1-(4-((1-(benzo[d][1,3]dioxol-5-yl)-1H-imidazol-4-yl)amino)pyrrolo[2,1-f][1,2,4]triazin-2-yl)pyrrolidin-2-yl)methanol] | < 100
COc1cc(-n2cnc(Nc3nc4c(c(N5CCC[C@H]5C(N)=O)n3)CCN(Cc3ccccc3)C4)c2)cc(OC)c1OC [Compound 166b, (S)-1-(7-benzyl-2-((1-(3,4,5-trimethoxyphenyl)-1H-imidazol-4-yl)amino)-5,6,7,8-tetrahydropyrido[3,4-d]pyrimidin-4-yl)pyrrolidine-2-carboxamide] | < 100
COc1cc(-n2cnc(Nc3nc(N4CCC[C@H]4CO)nc4c3CNC4)c2)cc(OC)c1OC [Compound 365b, (S)-(1-(4-(1-(3,4,5-trimethoxyphenyl)-1H-imidazol-4-ylamino)-6,7-dihydro-5H-pyrrolo[3,4-d]pyrimidin-2-yl)pyrrolidin-2-yl)methanol] | < 100
COc1cc(-n2cnc(Nc3nc(N4CCC[C@H]4C(N)=O)nc4c3CCNC4)c2)cc(OC)c1OC [Compound 185b, (S)-1-(4-((1-(3,4,5-trimethoxyphenyl)-1H-imidazol-4-yl)amino)-5,6,7,8-tetrahydropyrido[3,4-d]pyrimidin-2-yl)pyrrolidine-2-carboxamide] | < 100
COc1cc(-n2cnc(Nc3nc4c(c(N5CCC[C@H]5CO)n3)CN(Cc3ccccc3)CC4)c2)cc(OC)c1OC [Compound 177b, (S)-(1-(6-benzyl-2-((1-(3,4,5-trimethoxyphenyl)-1H-imidazol-4-yl)amino)-5,6,7,8-tetrahydropyrido[4,3-d]pyrimidin-4-yl)pyrrolidin-2-yl)methanol] | < 100
CCN(CCO)c1nc(Nc2cn(-c3ccccc3)cn2)c2ccsc2n1 [Compound 62b, 2-(ethyl(4-(1-phenyl-1H-imidazol-4-ylamino)thieno[2,3-d]pyrimidin-2-yl)amino)ethanol] | 100 to 1000
COc1cc(-n2cnc(Nc3nc(N4CCC[C@H]4CO)nc4c3CN(C(=O)OC(C)(C)C)C4)c2)cc(OC)c1OC [Compound 365a, (S)-tert-butyl 2-(2-(hydroxymethyl)pyrrolidin-1-yl)-4-(1-(3,4,5-trimethoxyphenyl)-1H-imidazol-4-ylamino)-5H-pyrrolo[3,4-d]pyrimidine-6(7H)-carboxylate] | < 100
COc1cc(-n2cnc(Nc3nc(N4CCC[C@H]4CO)nc4c3c(C)nn4C)c2)cc(OC)c1OC [Compound 374a, (S)-(1-(1,3-dimethyl-4-((1-(3,4,5-trimethoxyphenyl)-1H-imidazol-4-yl)amino)-1H-pyrazolo[3,4-d]pyrimidin-6-yl)pyrrolidin-2-yl)methanol] | 100 to 1000
Cn1cnc(Nc2nc(Cl)nc3ccoc23)c1 [Compound 1b, 2-chloro-N-(1-methyl-1H-imidazol-4-yl)furo[3,2-d]pyrimidin-4-amine] | > 1000
COc1cc(-n2cnc(Nc3nc(N4CCC[C@H]4C(N)=O)c4cc[nH]c4n3)c2)cc(OC)c1OC [Compound 173c, (S)-1-(2-((1-(3,4,5-trimethoxyphenyl)-1H-imidazol-4-yl)amino)-7H-pyrrolo[2,3-d]pyrimidin-4-yl)pyrrolidine-2-carboxamide] | < 100
COc1cc(-n2cnc(Nc3nc(N4CCC[C@@H]4CO)c4c(C)nn(C5CCC5)c4n3)c2)cc(OC)c1OC [Compound 460d, (R)-(1-(1-cyclobutyl-3-methyl-6-((1-(3,4,5-trimethoxyphenyl)-1H-imidazol-4-yl)amino)-1H-pyrazolo[3,4-d]pyrimidin-4-yl)pyrrolidin-2-yl)methanol] | < 100

The remaining lines, values ahead:

IC50 [nM] | Compound
< 100 | COc1cc(C(N)=O)cc(-n2cnc(Nc3nc(N4CCC[C@H]4CO)nn4cccc34)c2)c1 [Compound 125c, (S)-3-(4-((2-(2-(hydroxymethyl)pyrrolidin-1-yl)pyrrolo[2,1-f][1,2,4]triazin-4-yl)amino)-1H-imidazol-1-yl)-5-methoxybenzamide]
< 100 | COc1cc(-n2cnc(Nc3nc(-c4cccc(C(N)=O)c4)nn4cccc34)c2)cc(OC)c1OC [Compound 136a, 3-(4-((1-(3,4,5-trimethoxyphenyl)-1H-imidazol-4-yl)amino)pyrrolo[2,1-f][1,2,4]triazin-2-yl)benzamide]
< 100 | Cn1cnc(Nc2nc(N3CCCC3c3cccnc3)nc3ccoc23)c1 (centres unmarked) [Compound 11a, N-(1-methyl-1H-imidazol-4-yl)-2-(2-(pyridin-3-yl)pyrrolidin-1-yl)furo[3,2-d]pyrimidin-4-amine]
< 100 | COc1cc(Cl)cc(-n2cnc(Nc3nc(N4CCC[C@H]4CO)nn4cccc34)c2)c1 [Compound 322b, (S)-(1-(4-((1-(3-chloro-5-methoxyphenyl)-1H-imidazol-4-yl)amino)pyrrolo[2,1-f][1,2,4]triazin-2-yl)pyrrolidin-2-yl)methanol]
> 1000 | COc1cc(-n2cnc(Nc3nc(N4CCCC4)c4c(ccn4S(=O)(=O)c4ccc(C)cc4)n3)c2)cc(OC)c1OC [Compound 199b, 4-(pyrrolidin-1-yl)-5-tosyl-N-(1-(3,4,5-trimethoxyphenyl)-1H-imidazol-4-yl)-5H-pyrrolo[3,2-d]pyrimidin-2-amine]
< 100 | COc1cc(-n2cnc(Nc3nc(N4CCC[C@H]4CO)nc4cc[nH]c34)c2)cc(OC)c1OC [Compound 160d, (S)-(1-(4-((1-(3,4,5-trimethoxyphenyl)-1H-imidazol-4-yl)amino)-5H-pyrrolo[3,2-d]pyrimidin-2-yl)pyrrolidin-2-yl)methanol]
100 to 1000 | OC[C@@H]1CCCN1c1nc(Nc2cn(-c3cccc(O)c3O)cn2)c2cccn2n1 [Compound 424f, (S)-3-(4-((2-(2-(hydroxymethyl)pyrrolidin-1-yl)pyrrolo[2,1-f][1,2,4]triazin-4-yl)amino)-1H-imidazol-1-yl)benzene-1,2-diol]
< 100 | COc1cc(-n2cnc(Nc3nc(N4CCC[C@H]4C(N)=O)c4[nH]ccc4n3)c2)cc(OC)c1OC [Compound 191c, (S)-1-(2-((1-(3,4,5-trimethoxyphenyl)-1H-imidazol-4-yl)amino)-5H-pyrrolo[3,2-d]pyrimidin-4-yl)pyrrolidine-2-carboxamide]
< 100 | COc1cc(-n2cnc(Nc3nc(N4CCC[C@@H]4C(N)=O)nn4cccc34)c2)cc(OC)c1OC [Compound 210a, (R)-1-(4-((1-(3,4,5-trimethoxyphenyl)-1H-imidazol-4-yl)amino)pyrrolo[2,1-f][1,2,4]triazin-2-yl)pyrrolidine-2-carboxamide]
< 100 | COc1cc(-n2cnc(Nc3nc(N4CCC[C@H]4CO)nc4c3CCC4)c2)cc(OC)c1OC [Compound 289b, (S)-(1-(4-((1-(3,4,5-trimethoxyphenyl)-1H-imidazol-4-yl)amino)-6,7-dihydro-5H-cyclopenta[d]pyrimidin-2-yl)pyrrolidin-2-yl)methanol]
< 100 | COc1cc(-n2cnc(Nc3nc(N4CCC[C@H]4CO)nc4ccccc34)c2)cc(OC)c1OC [Compound 86b, (S)-(1-(4-((1-(3,4,5-trimethoxyphenyl)-1H-imidazol-4-yl)amino)quinazolin-2-yl)pyrrolidin-2-yl)methanol]
< 100 | COc1cc(-n2cnc(Nc3nc4c(c(N5CCC[C@H]5CO)n3)COC4)c2)cc(OC)c1OC [Compound 279c, (S)-(1-(2-((1-(3,4,5-trimethoxyphenyl)-1H-imidazol-4-yl)amino)-5,7-dihydrofuro[3,4-d]pyrimidin-4-yl)pyrrolidin-2-yl)methanol]
